Assays:
corn = assay: Test A pre-/postemergence greenhouse test; assay type: in vivo, Zea mays; conditions: for Plant response rating, Corn: 0 to 100 scale where 0 is no effect and 100 is complete control; for Corn plant response rating: 0 to 100 scale
Summary of the method: (§1)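 Herbicidal effect is a visual injury score given about ten days post-treatment by comparison with untreated controls. Preemergence plots received a directed spray onto sown loam–sand soil; postemergence plants, at the one- to two-leaf stage and 2–10 cm tall, were sprayed at the same time.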

giant foxtail = assay: Test A pre-/postemergence greenhouse test; assay type: in vivo, Setaria faberi; conditions: for Plant response rating, Foxtail, Giant: 0 to 100 scale where 0 is no effect and 100 is complete control; for Foxtail, Giant plant response rating: 0 to 100 scale
Summary of the method: as §1

rice = assay: Test C flooded paddy test; assay type: in vivo, Oryza sativa; conditions: Flood
Summary of the method: (§2)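 Greenhouse pots flooded to 3 cm above soil at time of treatment received compound via the water, which stayed at that level.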

duck salad = assay: Test C flooded paddy test; assay type: in vivo, Heteranthera limosa; conditions: Flood
Summary of the method: as §2

umbrella sedge = assay: Test C flooded paddy test; assay type: in vivo, Cyperus difformis; conditions: Flood
Summary of the method: as §2

redroot pigweed = assay: Test A pre-/postemergence greenhouse test; assay type: in vivo, Amaranthus retroflexus; conditions: for Plant response rating, Pigweed: 0 to 100 scale where 0 is no effect and 100 is complete control; for Pigweed plant response rating: 0 to 100 scale
Summary of the method: as §1

crabgrass = assay: Test A pre-/postemergence greenhouse test; assay type: in vivo, Digitaria sanguinalis; conditions: for Plant response rating, Crabgrass, Large: 0 to 100 scale where 0 is no effect and 100 is complete control; for Crabgrass, Large plant response rating: 0 to 100 scale
Summary of the method: as §1

barnyardgrass [1] = assay: Test C flooded paddy test; assay type: in vivo, Echinochloa crus-galli; conditions: Flood
Summary of the method: as §2

velvetleaf = assay: Test A pre-/postemergence greenhouse test; assay type: in vivo, Abutilon theophrasti; conditions: for Plant response rating, Velvetleaf: 0 to 100 scale where 0 is no effect and 100 is complete control; for Velvetleaf plant response rating: 0 to 100 scale
Summary of the method: as §1

morningglory = assay: Test A pre-/postemergence greenhouse test; assay type: in vivo, Ipomoea spp.; conditions: for Plant response rating, Morningglory: 0 to 100 scale where 0 is no effect and 100 is complete control; for Morningglory plant response rating: 0 to 100 scale
Summary of the method: as §1

barnyardgrass [2] = assay: Test A pre-/postemergence greenhouse test; assay type: in vivo, Echinochloa crus-galli; conditions: for Plant response rating, Barnyardgrass: 0 to 100 scale where 0 is no effect and 100 is complete control; for Barnyardgrass plant response rating: 0 to 100 scale
Summary of the method: as §1

wheat = assay: Test A pre-/postemergence greenhouse test; assay type: in vivo, Triticum aestivum; conditions: for Plant response rating, Wheat: 0 to 100 scale where 0 is no effect and 100 is complete control; for Wheat plant response rating: 0 to 100 scale
Summary of the method: as §1

[3] = Postemergence, 500 g ai/ha, 0 is no effect, 100 is complete control
[4] = Preemergence, 125 g ai/ha, 0 no effect, 100 complete control
[5] = Preemergence, 500 g ai/ha, 0 no effect, 100 complete control
[6] = 31 g ai/ha, scale 0 to 100 (0 no effect, 100 complete control)
[7] = 62 g ai/ha, scale 0 to 100 (0 no effect, 100 complete control)
[8] = 125 g ai/ha, scale 0 to 100, 0 no effect, 100 complete control, 13 to 15 days
[9] = 250 g ai/ha, scale 0 to 100, 0 no effect, 100 complete control, 13 to 15 days
[10] = Postemergence, 125 g ai/ha, 0 is no effect, 100 is complete control
[11] = 62 g ai/ha, scale 0 to 100, 0 no effect, 100 complete control, 13 to 15 days
[12] = 250 g ai/ha, scale 0 to 100 (0 no effect, 100 complete control)

## Cn1nc(C(F)(F)F)c(CS(=O)(=O)c2ccc(F)c[n+]2[O-])c1OC(F)F [Compound 107]
corn; Postemergence, 125 g ai/ha
  Plant response rating, Corn: 0
corn; [3]
  Corn plant response rating: 0
corn; [4]
  Corn plant response rating: 0
corn; [5]
  Corn plant response rating: 0
Giant foxtail; Postemergence, 125 g ai/ha
  Plant response rating, Foxtail, Giant: 70
Giant foxtail; [3]
  Foxtail, Giant plant response rating: 80
Giant foxtail; [4]
  Foxtail, Giant plant response rating: 60
Giant foxtail; [5]
  Foxtail, Giant plant response rating: 90
rice; [6]
  Plant response rating, Rice: 0
rice; [7]
  Plant response rating, Rice: 0
rice; [8]
  Plant response rating, Rice: 0
rice; [9]
  Plant response rating, Rice: 0
Duck salad; [6]
  Plant response rating, Ducksalad: 0
Duck salad; [7]
  Plant response rating, Ducksalad: 0
Duck salad; [8]
  Plant response rating, Ducksalad: 0
Duck salad; [9]
  Plant response rating, Ducksalad: 65
Umbrella sedge; [6]
  Plant response rating, Sedge, Umbrella: 0
Umbrella sedge; [7]
  Plant response rating, Sedge, Umbrella: 0
Umbrella sedge; [8]
  Plant response rating, Sedge, Umbrella: 0
Umbrella sedge; [9]
  Plant response rating, Sedge, Umbrella: 20
Redroot pigweed; Postemergence, 125 g ai/ha
  Plant response rating, Pigweed: 40
Redroot pigweed; [3]
  Pigweed plant response rating: 50
Redroot pigweed; [4]
  Pigweed plant response rating: 40
Redroot pigweed; [5]
  Pigweed plant response rating: 60
crabgrass; Postemergence, 125 g ai/ha
  Plant response rating, Crabgrass, Large: 70
crabgrass; [3]
  Crabgrass, Large plant response rating: 80
crabgrass; [4]
  Crabgrass, Large plant response rating: 60
crabgrass; [5]
  Crabgrass, Large plant response rating: 80
Barnyardgrass [1]; [6]
  Plant response rating, Barnyardgrass: 0
Barnyardgrass [1]; [7]
  Plant response rating, Barnyardgrass: 0
Barnyardgrass [1]; [8]
  Plant response rating, Barnyardgrass: 20
Barnyardgrass [1]; [9]
  Plant response rating, Barnyardgrass: 40
velvetleaf; Postemergence, 125 g ai/ha
  Plant response rating, Velvetleaf: 0
velvetleaf; [3]
  Velvetleaf plant response rating: 0
velvetleaf; [4]
  Velvetleaf plant response rating: 0
velvetleaf; [5]
  Velvetleaf plant response rating: 10
morningglory; Postemergence, 125 g ai/ha
  Plant response rating, Morningglory: 0
morningglory; [3]
  Morningglory plant response rating: 50
morningglory; [4]
  Morningglory plant response rating: 0
morningglory; [5]
  Morningglory plant response rating: 60
Barnyardgrass [2]; Postemergence, 125 g ai/ha
  Plant response rating, Barnyardgrass: 40
Barnyardgrass [2]; [3]
  Barnyardgrass plant response rating: 60
Barnyardgrass [2]; [4]
  Barnyardgrass plant response rating: 70
Barnyardgrass [2]; [5]
  Barnyardgrass plant response rating: 90
wheat; Postemergence, 125 g ai/ha
  Plant response rating, Wheat: 0
wheat; [3]
  Wheat plant response rating: 0
wheat; [4]
  Wheat plant response rating: 0
wheat; [5]
  Wheat plant response rating: 0

## Cn1nc(C(F)(F)F)c(CS(=O)(=O)c2ccc(Br)c[n+]2[O-])c1OC(F)F [Compound 13]
corn; [10]
  Corn plant response rating: 0
corn; [3]
  Corn plant response rating: 0
corn; [4]
  Corn plant response rating: 0
corn; Preemergence, 500 g ai/ha
  Plant response rating, Corn: 0
Giant foxtail; [10]
  Foxtail, Giant plant response rating: 0
Giant foxtail; [3]
  Foxtail, Giant plant response rating: 10
Giant foxtail; [4]
  Foxtail, Giant plant response rating: 50
Giant foxtail; Preemergence, 500 g ai/ha
  Plant response rating, Foxtail, Giant: 70
rice; [6]
  Plant response rating, Rice: 0
rice; [11]
  Plant response rating, Rice: 50
rice; [8]
  Plant response rating, Rice: 65
rice; [12]
  Plant response rating, Rice: 85
Duck salad; [6]
  Plant response rating, Ducksalad: 0
Duck salad; [11]
  Plant response rating, Ducksalad: 0
Duck salad; [8]
  Plant response rating, Ducksalad: 0
Duck salad; [12]
  Plant response rating, Ducksalad: 95
Umbrella sedge; [6]
  Plant response rating, Sedge, Umbrella: 0
Umbrella sedge; [11]
  Plant response rating, Sedge, Umbrella: 0
Umbrella sedge; [8]
  Plant response rating, Sedge, Umbrella: 20
Umbrella sedge; [12]
  Plant response rating, Sedge, Umbrella: 100
Redroot pigweed; [10]
  Pigweed plant response rating: 0
Redroot pigweed; [3]
  Pigweed plant response rating: 0
crabgrass; [10]
  Crabgrass, Large plant response rating: 0
crabgrass; [3]
  Crabgrass, Large plant response rating: 30
crabgrass; [4]
  Crabgrass, Large plant response rating: 40
crabgrass; Preemergence, 500 g ai/ha
  Plant response rating, Crabgrass, Large: 80
Barnyardgrass [1]; [6]
  Plant response rating, Barnyardgrass: 0
Barnyardgrass [1]; [11]
  Plant response rating, Barnyardgrass: 0
Barnyardgrass [1]; [8]
  Plant response rating, Barnyardgrass: 20
Barnyardgrass [1]; [12]
  Plant response rating, Barnyardgrass: 80
velvetleaf; [10]
  Velvetleaf plant response rating: 0
velvetleaf; [3]
  Velvetleaf plant response rating: 0
velvetleaf; [4]
  Velvetleaf plant response rating: 0
velvetleaf; Preemergence, 500 g ai/ha
  Plant response rating, Velvetleaf: 0
morningglory; [10]
  Morningglory plant response rating: 0
morningglory; [3]
  Morningglory plant response rating: 0
morningglory; [4]
  Morningglory plant response rating: 0
morningglory; Preemergence, 500 g ai/ha
  Plant response rating, Morningglory: 0
Barnyardgrass [2]; [10]
  Barnyardgrass plant response rating: 0
Barnyardgrass [2]; [3]
  Barnyardgrass plant response rating: 0
Barnyardgrass [2]; [4]
  Barnyardgrass plant response rating: 50
Barnyardgrass [2]; Preemergence, 500 g ai/ha
  Plant response rating, Barnyardgrass: 90
wheat; [10]
  Wheat plant response rating: 0
wheat; [3]
  Wheat plant response rating: 0
wheat; [4]
  Wheat plant response rating: 0
wheat; Preemergence, 500 g ai/ha
  Plant response rating, Wheat: 0

## Cc1cc[n+]([O-])c([S+]([O-])Cc2c(C(F)(F)F)nn(CC(F)(F)F)c2Cl)c1 (stereo not shown) [Compound 48]
corn; Postemergence, 125 g ai/ha
  Plant response rating, Corn: 0
corn; [3]
  Corn plant response rating: 50
corn; [4]
  Corn plant response rating: 0
corn; Preemergence, 500 g ai/ha
  Plant response rating, Corn: 60
Giant foxtail; Postemergence, 125 g ai/ha
  Plant response rating, Foxtail, Giant: 70
Giant foxtail; [3]
  Foxtail, Giant plant response rating: 80
Giant foxtail; [4]
  Foxtail, Giant plant response rating: 80
Giant foxtail; Preemergence, 500 g ai/ha
  Plant response rating, Foxtail, Giant: 90
rice; [11]
  Plant response rating, Rice: 0
rice; [9]
  Plant response rating, Rice: 25
Duck salad; [11]
  Plant response rating, Ducksalad: 0
Duck salad; [9]
  Plant response rating, Ducksalad: 25
Umbrella sedge; [9]
  Plant response rating, Sedge, Umbrella: 50
Redroot pigweed; Postemergence, 125 g ai/ha
  Plant response rating, Pigweed: 50
Redroot pigweed; [3]
  Pigweed plant response rating: 60
Redroot pigweed; [4]
  Pigweed plant response rating: 70
Redroot pigweed; Preemergence, 500 g ai/ha
  Plant response rating, Pigweed: 100
crabgrass; Postemergence, 125 g ai/ha
  Plant response rating, Crabgrass, Large: 50
crabgrass; [3]
  Crabgrass, Large plant response rating: 70
crabgrass; [4]
  Crabgrass, Large plant response rating: 70
crabgrass; Preemergence, 500 g ai/ha
  Plant response rating, Crabgrass, Large: 90
Barnyardgrass [1]; [11]
  Plant response rating, Barnyardgrass: 0
Barnyardgrass [1]; [9]
  Plant response rating, Barnyardgrass: 0
velvetleaf; Postemergence, 125 g ai/ha
  Plant response rating, Velvetleaf: 0
velvetleaf; [3]
  Velvetleaf plant response rating: 40
velvetleaf; [4]
  Velvetleaf plant response rating: 0
velvetleaf; Preemergence, 500 g ai/ha
  Plant response rating, Velvetleaf: 60
morningglory; Postemergence, 125 g ai/ha
  Plant response rating, Morningglory: 30
morningglory; [3]
  Morningglory plant response rating: 50
morningglory; [4]
  Morningglory plant response rating: 40
morningglory; Preemergence, 500 g ai/ha
  Plant response rating, Morningglory: 80
Barnyardgrass [2]; Postemergence, 125 g ai/ha
  Plant response rating, Barnyardgrass: 40
Barnyardgrass [2]; [3]
  Barnyardgrass plant response rating: 70
Barnyardgrass [2]; [4]
  Barnyardgrass plant response rating: 50
Barnyardgrass [2]; Preemergence, 500 g ai/ha
  Plant response rating, Barnyardgrass: 90
wheat; Postemergence, 125 g ai/ha
  Plant response rating, Wheat: 0
wheat; [3]
  Wheat plant response rating: 50
wheat; [4]
  Wheat plant response rating: 20
wheat; Preemergence, 500 g ai/ha
  Plant response rating, Wheat: 80

Source: patent US20100298141A1, “SUBSTITUTED PYRIDINE N-OXIDE HERBICIDES” (E. I. DU PONT DE NEMOURS AND COMPANY, priority 2007, published 2010)
